Reference: patent US20240207361A1, “ERYTHROPOIETIN-DERIVED PEPTIDES FOR TREATING RELAPSING-REMITTING MULTIPLE SCLEROSIS” (The United States Government as represented by the …, priority 2021, published 2024)
Entries after “also recorded” stand apart in the source; their conditions may differ.

What was measured:
[1] = test system: MOG-induced EAE GFAP-Luc/C57 mice; assay: Clinical neurologic scoring in MOG-induced monophasic EAE; format: in vivo, mouse; conditions: for clinical score compared to sham treated: 5 μg IV daily for 12 days from day 9, n=8 per group
From the text: (§1) Methods. Animals. Male FVB/N-Tg (GFAP-luc+/−) mice (Xenogen Corp, Alameda, CA) were crossed with either albino C57BL/6J-Tyrc-2j or SJL/J mice purchased from Charles River Laboratories (Wilmington, MA). The FI offspring were genotyped by PCR following the manufacturer's protocol. Female mice between 8-10 weeks of age positive for GFAP (GFAP-luc/C57 or GFAP-Luc/SJL) expression were used.
Induction of EAE and clinical assessment of animals. Active EAE was induced according to a standard protocol (Smith M, et al. Brain Research 1983:264:241-53). Mice were immunized on Day 0 by subcutaneous injection on both sides of the tail base with 100 μL of an emulsion composed of either PLP139-151 or MOG35-55 peptide in an equal volume of Freund's adjuvant, supplemented with 4 mg/mL killed M. tuberculosis H37Ra (Difco Laboratories, Detroit, MI). The initial dose of antigen was 100 μg of PLP peptide for inducing relapsing EAE in SJL/J mice, or 200 μg of MOG peptide per C57BL/6 mouse for induction of acute monophasic EAE. GFAP-Luc/SJL/J mice received a second PLP antigen immunization on Day 7. Immediately following these immunizations, mice received intravenous (IV) injections of 200 ng Bordetella pertussis toxin diluted in 200 μL phosphate buffered saline (PBS) (List Biological Laboratories, Campbell, CA). […] Animals were weighed and assessed daily for clinical signs of EAE by two blinded independent observers during the acute phase of illness, and followed three times a week during the later chronic phase. The monophasic EAE MOG C57BL6 model was monitored for 28-30 days and the PLP SJL/J relapsing model was followed for nearly 6 months after immunization. The clinical scoring system used to quantify behavioral neurological deficits in the EAE mouse models (Table 2) was previously described (Aquino D, et al. Journal of Neurochemistry 1990:54:1398-404). […]
Statistical analysis. […] Bioluminescence was measured by the number of days where luminescence intensity in the spinal cord exceeded a threshold of 0.5 relative to the left ear. […]

EAE mice = conditions: cited from earlier work
[2] = symptomatic EAE mice, literature; cited from earlier work
[3] = test system: PLP-induced relapsing-remitting EAE GFAP-Luc/SJL mice; assay: Clinical scoring, relapse and survival in PLP-induced relapsing-remitting EAE; format: in vivo, mouse; conditions: for long term clinical scores compared to sham treated: for over five months, n=4 JM-4, n=5 sham, p<0.05 at day 60 onward
From the text: as §1
Induction of EAE and clinical assessment of animals. […] Mice were immunized on Day 0 by subcutaneous injection on both sides of the tail base with 100 μL of an emulsion composed of either PLP139-151 or MOG35-55 peptide in an equal volume of Freund's adjuvant, supplemented with 4 mg/mL killed M. tuberculosis H37Ra (Difco Laboratories, Detroit, MI). The initial dose of antigen was 100 μg of PLP peptide for inducing relapsing EAE in SJL/J mice, or 200 μg of MOG peptide per C57BL/6 mouse for induction of acute monophasic EAE. GFAP-Luc/SJL/J mice received a second PLP antigen immunization on Day 7. Immediately following these immunizations, mice received intravenous (IV) injections of 200 ng Bordetella pertussis toxin diluted in 200 μL phosphate buffered saline (PBS) (List Biological Laboratories, Campbell, CA). The GFAP-Luc/C57BL mice received an additional IV injection of 200 ng Bordetella pertussis toxin on post-inoculation Day 2. Animals were weighed and assessed daily for clinical signs of EAE by two blinded independent observers during the acute phase of illness, and followed three times a week during the later chronic phase. The monophasic EAE MOG C57BL6 model was monitored for 28-30 days and the PLP SJL/J relapsing model was followed for nearly 6 months after immunization. The clinical scoring system used to quantify behavioral neurological deficits in the EAE mouse models (Table 2) was previously described (Aquino D, et al. Journal of Neurochemistry 1990:54:1398-404).
Immediately before use, the peptide solution was further diluted to 5 μg/200 μl with PBS. […] Control EAE animals were sham-treated with IV saline for the same time period. To evaluate the treatment effects, mice underwent BLI examination as well as clinical and histopathologic evaluation.
Statistical analysis. Data is presented as the mean±SEM. […] Bioluminescence was measured by the number of days where luminescence intensity in the spinal cord exceeded a threshold of 0.5 relative to the left ear. Survival data was examined using a two-tailed log-rank test. Values of p<0.05 were considered significant.

[4] = test system: SJL/J relapsing-remitting EAE mice; assay: Spinal cord histopathology (Luxol fast blue, SMI-32, mouse IgG) in SJL/J relapsing-remitting EAE; format: in vivo
From the text: Histopathology. To assess CNS inflammation and demyelination at different time points after immunization, EAE mice in the JM4 peptide-treated and sham-treated groups were anesthetized and perfused with ice-cold PBS, followed by 4% paraformaldehyde into the left ventricle. Spinal cords and brain were removed. Tissues were then embedded in paraffin, sectioned and stained with Luxol-Fast Blue/PAS to determine the extent of demyelination. Five-micron paraffin sections from the high cervical, thoracic and low lumbosacral region of the spinal cord were placed on the same slide. Each slide contained a control normal spinal cord section, a sham-treated EAE cord, and spinal cord sections from JM4 treated EAE animals. Histopathologic examination was performed in blinded fashion. In addition, SMI-32 anti-neurofilament H immunohistochemical staining was completed to assess acute axonal injury (Aquino D, et al. Journal of Neurochemistry 1990:54:1398-404). In brief, 5 μm sections were de-paraffinized, treated with antigen-retrieving solution, and blocked with normal horse serum to minimize nonspecific binding. The sections were first incubated with mouse SMI-32 antibody (Sternberger Monoclonals, Lutherville, MD) diluted 1:5,000 in PBS overnight at 4° C. After two 5-minute PBS washes, the sections were incubated with biotinylated horse anti-mouse IgG (Vector Labs, Burlingame, CA), and then by horseradish peroxidase (HRP)-avidin complex (Vector Labs) for 30 minutes each. Immunostaining was visualized by reacting the sections with diaminobenzidine tetrahydrochloride (Stable DAB: Invitrogen) for 1 to 3 minutes. Excess DAB was removed by washing with distilled water and the slides were evaluated using light microscopy.

[5] = Hematopoietic and other side effects; conditions: acute MOG and relapsing-remitting PLP SJL/J EAE models
GFAP-luc [6] = assay: GFAP-luc bioluminescence imaging flare-ups in PLP-induced relapsing-remitting EAE; format: in vivo, mouse; conditions: for number of imaging flare ups / GFAP-luc expression compared to sham treated: relapsing-remitting EAE, brain or spinal cord
Procedure: (§2) Bioluminescence Imaging (BLI). Bioluminescent signals were quantified using the In Vivo Imaging System 100 (IVIS: Xenogen, Alameda, CA) with a cold Charged Coupled Device (CCD) camera mounted in a dark box. Three animals were imaged simultaneously. Mice received an IV injection of 1 mg/kg D-luciferin (Xenogen) 2-3 minutes prior to imaging and were immediately anesthetized with vaporized isoflurane for imaging. The imaging signal was quantified in units of photons per second per centimeter squared per steradian (photons/s·cm2/sr) using […] Version 3.1 (Xenogen) software and integrated over 2 minutes. For signal quantification, photons were obtained from a “region of interest” (ROI) that covered 2.18 cm2 of contiguous forebrain and 5.27 cm2 of spinal cord region. Bioluminescence was expressed as a ratio of the total photons value from the central nervous system ROI to the photon value obtained from an equal sized area over the left ear, used as an endogenous control. In the acute EAE model, measurements were typically taken every 1-2 days and the average of 2 consecutive days readings were used. Bioluminescence imaging was performed every other day after disease onset and twice weekly during the later chronic phase of the illness.
(§3) JM4 treatment. The JM4 peptide was first dissolved in distilled water to 2 mg/ml and stored at −80° C. Immediately before use, the peptide solution was further diluted to 5 μg/200 μl with PBS. […] The EAE mice were randomly divided into a JM4 treated and a sham treated group. The JM4 treated EAE animals (4-10 per group) were treated daily with IV JM4 250 μg/kg of the peptide in PBS for 10-12 days. Control EAE animals were sham-treated with IV saline for the same time period. To evaluate the treatment effects, mice underwent BLI examination as well as clinical and histopathologic evaluation.
(§4) Statistical analysis. Data is presented as the mean±SEM. Two tailed t-tests were used to compare JM4 effects on BLI and clinical scores. The long-term effects of JM4 were studied in the relapsing EAE model by using each subject's average clinical score from day 60 onward. Bioluminescence was measured by the number of days where luminescence intensity in the spinal cord exceeded a threshold of 0.5 relative to the left ear. Survival data was examined using a two-tailed log-rank test. Values of p<0.05 were considered significant.

GFAP-luc [7] = assay: GFAP-luc bioluminescence imaging (BLI) in MOG-induced EAE; format: in vivo, mouse
Procedure: as §2, §3, §4

complement component C3 = assay: C3/GFAP immunohistochemistry for A1 astrocyte activation in spinal cord of MOG EAE mice; format: in vivo, mouse
Procedure: Spinal cord (cut into 6-7 equal pieces from cervical to sacral) was frozen and serially cut at 8 μm-thick cross sections and collected on slides, then post-fixed in acetone at −20° C. for 10 min. Sections were first treated with Target Unmasking Fluid (Pan Path) at 90° C. for 10 min, and blocked in 2% normal horse serum for 10 min. Sections were incubated overnight at 4° C. with either monoclonal rat anti-mouse C3 complement (Abcam, AB11862) at 1:50 or polyclonal rabbit anti-mouse GFAP (Dako Z0334GFAP) at 1:500. The next day sections were washed in PBS three times for 10 min each and incubated with cy3 or cy2 conjugated goat anti-mouse/rat/rabbit IgG (Jackson ImmunResearch) at 1:120 working dilution for 1 hour. Sections were washed in dH2O three times for 10 min each, followed by fluorescence microscopy imaging.
Immunohistochemistry images were obtained using an Olympus BX41 fluorescent microscope (Center Valley, PA, USA) fitted with ProgRes MF cool digital camera using 4× or 10× objectives. Half of each section from different spinal levels was quantified by measuring the percent area in the structure where label exceeded a constant threshold value using Image Pro 4.0 image analysis software (BD Biosciences, Franklin Lakes, NJ).
as §4

## GCAEHCSLNENITVPDTKV [JM-4]
[1]
  clinical score compared to sham treated: significantly lower
[1]; listed as JM4
  clinical score compared to sham treated: significant reduction in clinical score
[1]; JM4 250 μg/kg IV for 12 days starting day 9 post-immunization, score scale 0-6 (Table 2), sham 3.7±0.4, p<0.05
  maximum mean clinical score: 2.25±0.3
EAE mice; EAE mice
  decrease of dendritic cells: ten-fold
  mononuclear cells count: reduced elevated mononuclear cells count to normal
  proinflammatory cytokines including IL-2, IL-6, TNF-alpha and INF-gamma: decreased proinflammatory cytokines
EAE mice; SJL/J EAE mice
  T helper Th 17 positive cells: reduce T helper Th 17 positive cells
  Treg cells: expand Treg cells
EAE mice; symptomatic EAE mice, literature
  tissue protective properties: robust EPO-like tissue protective properties
[2]
  erythropoietic activity: without the activities responsible for excessive erythropoiesis
[3]; acute phase of the disease
  clinical deficit improved earlier than sham-treated animals: 7 days
[3]; at 100 days, Kaplan-Meier, sham 50%
  survival: 100%
[3]; for 130 days, 12-day course IV 5 μg/day from day 9, sham around 2
  average clinical score: under 1
[3]
  long term clinical scores compared to sham treated: remarkably reduced
[3]; listed as JM4
  long term clinical scores compared to sham treated: significantly lower
[3]; throughout the 5-month experiment, sham 20%
  animals remaining relapse-free by clinical scoring: 50%
[4]; Luxol fast blue, ventral white matter
  spinal cord demyelination and axonal injury: protective against spinal cord demyelination and axonal injury
[4]; mouse, in vivo
  number of injured axons (SMI-32) rimming the ventral spinal cord versus sham: large reduction in number of injured axons
[4]; versus saline treated EAE
  IgG immunoreactivity in spinal cord (blood-brain barrier breakdown): profoundly reduced
[5]
  hematogenic side effects: without the negative hematogenic side effects
GFAP-luc [6]; 5 μg IV daily for 12 days, n=8 JM-4, n=7 sham, sham 10.29+/−2.447, p<0.05
  number of spinal cord bioluminescence flare ups (mean+/−SEM): 4.0+/−1.018
GFAP-luc [6]; chronic remitting-relapsing EAE
  average daily intensity of the bioluminescent signal versus sham-treated: not significantly different
GFAP-luc [6]
  number of imaging flare ups / GFAP-luc expression compared to sham treated: substantially less; also recorded: significantly decreased
GFAP-luc [6]; listed as JM4
  number of imaging flare ups / GFAP-luc expression compared to sham treated: significantly decreased
GFAP-luc [7]; 5 μg IV daily for 12 days from day 9, n=8, p<0.05
  peak bioluminescent values in forebrain and spinal cord compared to sham treated: significantly lower
GFAP-luc [7]; FIG. 3A, treatment started day 9
  spinal cord bioluminescence signal after start of treatment, single imaged animal: virtual absence of spinal cord signal by day 4
GFAP-luc [7]; MOG EAE
  GFAP-luc signal returned to baseline earlier than sham-treated group: 3 to 4 days
GFAP-luc [7]; at days 11 to 12
  reduction of bioluminescence from peak disease scores compared with sham animals: 3-4 fold
Complement component C3; 24 days post immunization, JM4 250 μg/kg IV 12 days from day 9, n=7 per group, EAE 17.5+/−3.7, p<0.05
  C3 expression in spinal cord: 8.3+/−1.9
Complement component C3; EAE mice
  attenuation of A1 astrocyte activation: over 50%
Complement component C3; spinal cord
  C3 / A1 astrocyte immunoreactivity versus untreated EAE: massive reduction of C3 positive A1 astrocytes; also recorded: significant decrease in C3 immunoreactivity
